From PubChem BioAssay (NCI)
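Results reflect a 48-hour exposure of cells in 96-well plates to compound at five concentrations. GI50: concentration for 50% inhibition of growth. At the TGI there is no net growth.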

Assays:
Assay in all cases: inhibition of tumour cell growth, NCI panel, 48 h
HCT-116 colon = tested on: HCT-116 colon
NCI-H23 lung = tested on: NCI-H23 lung
A549 NSCLC = tested on: A549 NSCLC
SF-295 CNS = tested on: SF-295 CNS
UO-31 renal = tested on: UO-31 renal
COLO 205 colon = tested on: COLO 205 colon
CAKI-1 renal = tested on: CAKI-1 renal
K-562 leukemia = tested on: K-562 leukemia
SNB-19 CNS = tested on: SNB-19 CNS
MDA-N = tested on: MDA-N

Row | SMILES | TGI (HCT-116 colon) | TGI (NCI-H23 lung) | TGI (A549 NSCLC) | TGI (SF-295 CNS) | TGI (UO-31 renal) | TGI (COLO 205 colon) | TGI (CAKI-1 renal) | TGI (K-562 leukemia) | TGI (SNB-19 CNS) | GI50 (HCT-116 colon) | GI50 (K-562 leukemia) | TGI (MDA-N)
1 | CCn1c(SC(C)C(=O)c2c(C)n(C)n(-c3ccccc3)c2=O)nc2ccccc2c1=O (stereo not given) | > 100 µM | > 100 µM | > 100 µM | > 100 µM | > 100 µM | > 100 µM | – | – | – | – | – | –
2 | O=C1c2ccccc2C(=O)c2c(O)c(NCCCNCCO)cc(O)c21 | – | 24.6 µM | 23.7 µM | 23.1 µM | 19.5 µM | 20.8 µM | 22.4 µM | 3.5 µM | – | – | – | –
3 | CC1(C)O[C@@H](CCl)C[C@H](C#N)O1 | > 100 µM | > 100 µM | > 100 µM | > 100 µM | > 100 µM | > 100 µM | > 100 µM | > 100 µM | > 100 µM | – | – | –
4 | COc1cc(CNc2cnc3cc(N)ccc3n2)cc(OC)c1OC | 50.2 µM | > 100 µM | > 100 µM | 80.8 µM | > 100 µM | 62.2 µM | > 100 µM | > 100 µM | > 100 µM | – | – | –
5 | COc1cc([C@@H]2c3cc4c(cc3[C@@H](Nc3ccccc3C(=O)c3ccccc3)[C@H]3COC(=O)[C@H]23)OCO4)cc(OC)c1OC | > 100 µM | > 100 µM | > 100 µM | > 100 µM | > 100 µM | 1.42 µM | > 100 µM | > 100 µM | > 100 µM | – | – | –
6 | CCOC(=O)c1c(Br)c(-c2ccc(OC)cc2)c(Br)n1C | 62.6 µM | > 100 µM | 82.3 µM | 56.1 µM | 89.2 µM | > 100 µM | – | 38.3 µM | 97.7 µM | 16 µM | 4.04 µM | –
7 | O=C(CCCCCCCCC(=O)N1C(=O)CC(=O)N(c2ccccc2)C1=S)N1C(=O)CC(=O)N(c2ccccc2)C1=S | > 100 µM | > 100 µM | > 100 µM | > 100 µM | > 100 µM | > 100 µM | > 100 µM | – | > 100 µM | – | – | > 100 µM
8 | O=c1[nH]c2ccccc2c(O)c1/C=N/C(=S)NCc1ccccc1 | > 100 µM | > 100 µM | > 100 µM | > 100 µM | > 100 µM | > 100 µM | > 100 µM | – | > 100 µM | – | – | > 100 µM
9 | C(/Cc1ccc2c(c1)OCO2)=N\NC1=NCCN1 | > 100 µM | > 100 µM | > 100 µM | > 100 µM | > 100 µM | > 100 µM | – | > 100 µM | > 100 µM | – | – | –
10 | CCC/C=C1\CCC(CN(C)C)C1=O (stereo not given) | 23.1 µM | 32.8 µM | > 62.2 µM | > 55.3 µM | 26.6 µM | 10.7 µM | 4.59 µM | – | > 67 µM | – | – | –
11 | O=C(NC1CCCCC1)c1cc2ccccc2cc1O | 47.6 µM | – | – | > 100 µM | 99 µM | > 100 µM | > 100 µM | 55.9 µM | > 100 µM | – | – | –
12 | COC(=O)[C@H]1NC(=O)CCSSC1(C)C | > 100 µM | > 100 µM | > 100 µM | > 100 µM | > 100 µM | > 100 µM | > 100 µM | > 100 µM | > 100 µM | – | – | –
13 | COc1ccc2c(c1)C/C(=C\c1cccc3ccccc13)C2=O | – | 24.2 µM | > 100 µM | – | > 100 µM | – | > 100 µM | > 100 µM | > 100 µM | – | – | –
14 | CC1(C)C(=O)c2ccccc2OC1N1CCN(C2Oc3ccccc3C(=O)C2(C)C)CC1 (stereo not given) | > 100 µM | > 100 µM | – | – | > 100 µM | > 100 µM | > 100 µM | > 100 µM | > 100 µM | – | – | > 100 µM
15 | C=CCN1C(=O)/C(=C/c2ccco2)N=C1SC1OC(COC(C)=O)C(OC(C)=O)C(OC(C)=O)C1OC(C)=O (stereo not given) | – | > 100 µM | – | > 100 µM | – | > 100 µM | > 100 µM | > 100 µM | – | – | – | –
16 | C[n+]1c(-c2ccc(/C=N/Nc3ccnc(N/N=C/c4ccc(-c5cn6ccsc6[n+]5C)cc4)n3)cc2)cn2ccsc21 | – | > 100 µM | 91.2 µM | – | > 100 µM | 87.9 µM | 66.6 µM | 39.7 µM | > 100 µM | – | – | 38.6 µM
17 | O=c1c2c3c(sc2nc2n1N=C(c1ccc(Cl)cc1)CS2)CCCC3 | > 100 µM | > 100 µM | > 100 µM | > 100 µM | > 100 µM | > 100 µM | > 100 µM | > 100 µM | – | – | – | > 100 µM
18 | Oc1ccc(Cl)cc1-c1cc(-c2ccccc2)nc(NCN2CCCCC2)n1 | > 100 µM | > 100 µM | > 100 µM | – | > 100 µM | > 100 µM | > 100 µM | > 100 µM | > 100 µM | – | – | > 100 µM
19 | O=S(OC12CC3CC(CC(C3)C1)C2)c1cc(Cl)cc(Cl)c1OCc1ccccc1 (stereo not given) | > 100 µM | > 100 µM | – | – | > 100 µM | – | – | > 100 µM | > 100 µM | – | – | –
20 | O=c1cc(-c2c[nH]c3ccccc23)[nH]c2cc3c(cc12)OCO3 | > 100 µM | > 100 µM | > 100 µM | > 100 µM | > 100 µM | > 100 µM | – | > 100 µM | > 100 µM | – | – | –
21 | CC1(C)C(CCO)CC1n1cc(I)c(=O)[nH]c1=O (stereo not given) | > 100 µM | – | > 100 µM | > 100 µM | > 100 µM | > 100 µM | > 100 µM | > 100 µM | > 100 µM | – | – | > 100 µM
22 | CCCC(C)n1c(C)nc2c1C(=O)c1ccccc1C2=O (stereo not given) | 19.5 µM | 36.2 µM | > 100 µM | > 100 µM | 93.3 µM | > 100 µM | – | > 100 µM | > 100 µM | – | – | –
23 | O=C(c1ccccc1)n1cc(-c2ccccc2)c2c(=O)[nH]cnc21 | > 100 µM | > 100 µM | > 100 µM | > 100 µM | > 100 µM | > 100 µM | > 100 µM | – | > 100 µM | – | – | > 100 µM
24 | O=[N+]([O-])c1ccccc1S(=O)(=O)c1ccccc1 | > 100 µM | > 100 µM | > 100 µM | > 100 µM | 90.6 µM | > 100 µM | – | > 100 µM | – | – | – | –
25 | CCOC(=O)c1nc2ccccc2nc1Oc1ccc(C(=O)OC)cc1 | > 100 µM | – | > 100 µM | > 100 µM | > 100 µM | > 100 µM | > 100 µM | > 100 µM | > 100 µM | – | – | > 100 µM
